Assay results taken from PubChem BioAssay (NCI).
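In this assay, cells in 96-well plates receive the compound at five concentrations for 48 hours. Endpoints are linearly interpolated between the surrounding concentrations. TGI marks complete inhibition of growth.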

Tests used:
Test in all cases: NCI tumour cell line growth inhibition, 48 h
CAKI-1 renal = system: CAKI-1 renal
SF-295 CNS = system: SF-295 CNS
HOP-92 NSCLC = system: HOP-92 NSCLC
EKVX NSCLC = system: EKVX NSCLC
SN12C renal = system: SN12C renal
UACC-257 melanoma = system: UACC-257 melanoma
HCC-2998 colon = system: HCC-2998 colon
NCI-H522 lung = system: NCI-H522 lung
HOP-62 NSCLC = system: HOP-62 NSCLC

| SMILES | TGI (CAKI-1 renal) [µM] | TGI (SF-295 CNS) [µM] | TGI (HOP-92 NSCLC) [µM] | TGI (EKVX NSCLC) [µM] | TGI (SN12C renal) [µM] | TGI (UACC-257 melanoma) [µM] | TGI (HCC-2998 colon) [µM] | TGI (NCI-H522 lung) [µM] | TGI (HOP-62 NSCLC) [µM] |
| --- | --- | --- | --- | --- | --- | --- | --- | --- | --- |
| O=c1nc2cc(-c3ccccc3)[nH]c2nn1-c1c(Cl)cc(Cl)cc1Cl | 68.5 | 93.2 | 64 | 74 | 83.7 | 79.6 | 32 | 52.1 | 56.5 |
| O=[N+]([O-])c1ccc(Cl)c(C2SCc3nc4ccccc4n32)c1 (configuration not stated) | 76.1 | > 100 | 45.3 | > 100 | > 100 | 93 | > 100 | > 100 |  |
| COc1ccc(O)c2c1C(=O)CCCC2=O | > 100 | > 100 |  | > 100 | > 100 | > 100 | > 100 | > 100 | > 100 |
| COc1ccc(NC(=O)C(=O)C2NC(=S)NC2=O)c(OC)c1 (configuration not stated) |  | > 100 | > 100 | > 100 | > 100 | > 100 | > 100 |  | > 100 |
| COC(=O)C1=C(C(=O)OC)C2(C(=O)OC)OC1(OC)C(C1(C(=O)OC)C(C(=O)OC)=C1C(=O)OC)=C2C(=O)OC (configuration not stated) |  | > 100 | > 100 | > 100 | > 100 | > 100 | > 100 | > 100 | > 100 |
| COc1cc(C2C(C(=O)Nc3ccccc3)=C(C)NC(C)=C2C(=O)Nc2ccccc2)ccc1O |  | > 100 | 88.5 | > 100 | > 100 | > 100 | > 100 |  | > 100 |
| Cc1cc(C)nc(NS(=O)(=O)c2ccc(NC(=O)c3cccc4cc5ccccc5nc34)cc2)n1 | > 100 | > 100 |  | > 100 | > 100 | > 100 |  | 54.3 | > 100 |
| Fc1ccccc1C1CC(C(c2ccccc2)c2ccccc2)=Nc2ccccc2S1 (configuration not stated) | 20.1 | 26.5 |  | 24.5 | 26 | 30.6 | 17.6 | 21.7 | 26.9 |
| CC1=C2C(c3ccccc3)(c3ccccc3)C3C=CC2(C=N3)N(C(=O)NC2CCCCC2)C1=O (configuration not stated) | 26.1 | 31.2 | 27.4 | 28.7 | 31.7 | 30.9 | 32.4 |  | 31.7 |
| CCN(CC)CCCNC(=O)Cc1ccccc1Nc1c(Cl)cccc1Cl |  | 32.7 |  | 28.2 | 28.5 | 13.2 | 11.5 |  | 29.9 |
| COc1ccc(C2S/C(=C\c3ccc(OC)cc3OC)C(=O)N2NC(=O)Cc2ccccc2)cc1 (configuration not stated) | > 100 | > 100 | > 100 |  | > 100 | > 100 |  | > 100 | > 100 |
| Cc1ccc(NC(=O)C(=O)Cc2nc3ccccc3o2)c(C)c1 | > 100 | > 100 | > 100 | > 100 | > 100 | > 100 | > 100 |  | > 100 |
| CCOC(=O)C(C)(C)Oc1ccc2c(-c3ccc(Cl)cc3)cc(=O)oc2c1 |  | > 100 |  | > 100 | > 100 | > 100 | > 100 |  | > 100 |
| CCOC(=O)C(C[Si](C)(C)C)P(=O)(OCC)OCC (configuration not stated) | > 100 | > 100 | > 100 |  | > 100 | > 100 | > 100 | > 100 | > 100 |
| O=c1cccccc1NCCCCNc1cccccc1=O | > 100 | > 100 |  | > 100 | > 100 | > 100 | > 100 | > 100 | > 100 |
| CN(O)C(=O)Cc1ccccc1 | > 100 | > 100 | > 100 |  | > 100 | > 100 | > 100 | > 100 | > 100 |
| Cc1ccc(N2C(=O)/C(=C3\Sc4c(nc(C)[nH]c4=O)N3c3ccccc3)SC2=S)cc1 | > 100 | 54.8 | 97.3 | > 100 | > 100 | > 100 |  | > 100 | 25.9 |
| O=[N+]([O-])c1ccccc1C1N2CCCCC2[C@@H]2c3[nH]c4ccccc4c3CCN12 (some centres not stated) | 29.9 | 29.8 | 29.2 | 41.3 | 26.6 | 26.7 |  |  | 29.2 |
| O=C1C(c2ccccc2)=C(c2ccccc2)C(c2ccc(CCCCCCc3ccc(C4=C(c5ccccc5)C(=O)C(c5ccccc5)=C4c4ccccc4)cc3)cc2)=C1c1ccccc1 |  | > 100 | > 100 | > 100 | > 100 | > 100 | > 100 | > 100 | > 100 |
| CCCCCCCCCC(=O)CC(=O)c1c(O)cccc1O | > 100 | 98.2 |  | 86.9 | 53.4 | > 100 | > 100 | 89.7 | > 100 |
